# Test results from patent US20250144067A1, “PERSONALIZED STARVATION THERAPY FOR CANCER” (Faeth Therapeutics, Inc., priority 2021, published 2025).
# Structures can show the parent of a compound that is named as a salt. Where two headings read alike, the source gives them in different places.
# What was measured:
# [1] = system: NCI-H292 lung cancer cells; assay: FDA drug screening, complete media vs cholesterol-free media without statin (TABLE 1); type: cell-based, human
# [2] = system: NCI-H292 lung cancer cells; assay: FDA drug screening, complete media vs cholesterol-free media with simvastatin (TABLE 2); type: cell-based, human
# [3] = Complete minus Cholesterol-free, greater than 0 enhanced anti-cancer activity, about 0 neutral, below 0 antagonists
# [4] = NCI-H292 cells in cholesterol-free media without statin
# [5] = NCI-H292 cells in complete media
# [6] = NCI-H292 cells, FDA drug library screen, cholesterol-free media with simvastatin 0.04 μM
# [7] = NCI-H292 cells, FDA drug library screen, complete media
# [8] = complete media vs cholesterol-free media + simvastatin (0.04 μM), >0 enhanced anti-cancer activity, about 0 neutral, <0 antagonist
# [9] = Complete minus Cholesterol-free, >0 enhanced anti-cancer activity, about 0 neutral, <0 antagonist
# [10] = NCI-H292 cells, cholesterol-free media without statin
# [11] = NCI-H292 cells, FDA library drug in cholesterol-free media with simvastatin 0.04 μM
# [12] = NCI-H292 cells, FDA library drug in complete media
# [13] = NCI-H292 cells, cholesterol-free media without statin, FDA drug library screen
# [14] = NCI-H292 cells, complete media, FDA drug library screen
# [15] = NCI-H292 cells, drug in cholesterol-free media with simvastatin 0.04 μM
# [16] = NCI-H292 cells, drug in complete media
# [17] = Complete minus Cholesterol-free, […]
# [18] = NCI-H292 cells, FDA drug library screen, cholesterol-free media without statin
# [19] = complete media minus cholesterol-free media + simvastatin, […]
# [20] = NCI-H292 cells, cholesterol-free media with simvastatin 0.04 μM, cell growth value in FDA drug screen
# [21] = NCI-H292 cells, complete media, cell growth value in FDA drug screen
# [22] = complete media minus cholesterol-free media + simvastatin, >0 enhanced anti-cancer activity, about 0 neutral, <0 antagonist
# [23] = NCI-H292 cells, cholesterol-free media with simvastatin 0.04 μM, FDA drug library screen (TABLE 2)
# [24] = NCI-H292 cells, complete media, FDA drug library screen (TABLE 2)
# [25] = complete media minus cholesterol-free media + simvastatin (0.04 μM), […]
# [26] = Complete minus Cholesterol-free, greater than 0 enhanced anti-cancer activity, about 0 neutral, below 0 antagonist
# [27] = complete media minus cholesterol-free media + simvastatin (0.04 μM), >0 enhanced anti-cancer activity, about 0 neutral, <0 antagonist
# [28] = complete vs cholesterol-free media, greater than 0 enhanced anti-cancer activity, about 0 neutral, below 0 antagonists
compound,measurement,setting,value
COc1ccc(C(=O)CC(=O)c2ccc(C(C)(C)C)cc2)cc1 [Avobenzone],Difference,[1]; [3],−0.48
same,Cholesterol-free,[1]; [4],1.457
same,Complete,[1]; [5],0.9767
same,Cholesterol-free media + simvastatin (0.04 μM),[2]; [6],1.07
same,Complete Media,[2]; [7],0.9672
same,Difference,[2]; [8],−0.10
CCOC(=O)c1ccc(N)cc1 [Benzocaine],Difference,[1]; [9],−0.30
same,Cholesterol-free,[1]; [10],0.9439
same,Complete,"[1]; NCI-H292 cells, complete media",0.6479
same,Cholesterol-free media + simvastatin (0.04 μM),[2]; [11],1.309
same,Complete Media,[2]; [12],1.007
same,Difference,[2]; [8],−0.30
Gadobutrol,Difference,[1]; [9],0.01
same,Cholesterol-free,[1]; [13],0.939
same,Complete,[1]; [14],0.9511
same,Cholesterol-free media + simvastatin (0.04 μM),[2]; [15],1.273
same,Complete Media,[2]; [16],1.022
same,Difference,[2]; [8],−0.25
O=S(=O)([O-])CCSSCCS(=O)(=O)[O-].[Na+].[Na+] [Dimesna],Difference,[1]; [17],−0.18
same,Cholesterol-free,[1]; [18],1.073
same,Complete,[1]; [7],0.897
same,Cholesterol-free media + simvastatin (0.04 μM),[2]; [6],0.7165
same,Complete Media,[2]; [7],1.057
same,Difference,[2]; [19],0.34
Eliglustat (hemitartrate),Difference,[1]; [17],−0.24
same,Cholesterol-free,[1]; [10],0.8345
same,Complete,"[1]; NCI-H292 cells, complete media",0.5954
same,Cholesterol-free media + simvastatin (0.04 μM),[2]; [15],0.9268
same,Complete Media,[2]; [16],0.7576
same,Difference,"[2]; complete media vs cholesterol-free media + simvastatin (0.04 μM), […]",−0.17
COc1cc(OC)cc(N(CCNC(C)C)c2ccc3ncc(-c4cnn(C)c4)nc3c2)c1 [Erdafitinib],Cholesterol-free,[1]; [13],0.8277
same,Complete,[1]; [14],1.177
same,Difference,"[1]; complete vs cholesterol-free media, >0 enhanced anti-cancer activity, about 0 neutral, <0 antagonist",0.35
same,Cholesterol-free media + simvastatin (0.04 μM),[2]; [20],0.8898
same,Complete Media,[2]; [21],0.9602
same,Difference,[2]; [22],0.07
Nc1ncnc2c1ncn2CCOCP(=O)(O)O [Adefovir],Cholesterol-free,[1]; [13],0.8102
same,Complete,[1]; [14],1.199
same,Difference,"[1]; complete vs cholesterol-free media, […]",0.39
same,Cholesterol-free media + simvastatin (0.04 μM),[2]; [23],0.9937
same,Complete Media,[2]; [24],0.9462
same,Difference,[2]; [25],−0.05
CN(C)C(=O)C(CCN1CCC(O)(c2ccc(Cl)cc2)CC1)(c1ccccc1)c1ccccc1 [Loperamide (hydrochloride)],Cholesterol-free,[1],1.105
same,Complete,[1],0.9631
same,Difference,[1],−0.14
same,Cholesterol-free media + simvastatin (0.04 μM),[2],1.197
same,Complete Media,[2],0.9577
same,Difference,[2],−0.24
CC1=NN(c2ccccc2)C(=O)C1 [Edaravone],Difference,[1]; [26],−0.18
same,Cholesterol-free,[1]; [18],1.236
same,Complete,[1]; [7],1.052
same,Cholesterol-free media + simvastatin (0.04 μM),[2]; [23],1.019
same,Complete Media,[2]; [24],1.02
same,Difference,[2]; [27],0.00
CC[C@H](C)[C@H](NC(=O)[C@H](CCC(=O)O)NC(=O)[C@H](CO)NC(=O)[C@@H](NC(=O)[C@@H](N)CO)C(C)C)C(=O)N[C@@H](CCC(N)=O)C(=O)N[C@@H](CC(C)C)C(=O)N[C@@H](CCSC)C(=O)N[C@@H](Cc1cnc[nH]1)C(=O)N[C@@H](CC(N)=O)C(=O)N[C@@H](CC(C)C)C(=O)NCC(=O)N[C@@H](CCCCN)C(=O)N[C@@H](Cc1cnc[nH]1)C(=O)N[C@@H](CC(C)C)C(=O)N[C@@H](CC(N)=O)C(=O)N[C@@H](CO)C(=O)N[C@@H](CCSC)C(=O)N[C@@H](CCC(=O)O)C(=O)N[C@@H](CCCN=C(N)N)C(=O)N[C@H](C(=O)N[C@@H](CCC(=O)O)C(=O)N[C@@H](Cc1c[nH]c2ccccc12)C(=O)N[C@@H](CC(C)C)C(=O)N[C@@H](CCCN=C(N)N)C(=O)N[C@@H](CCCCN)C(=O)N[C@@H](CCCCN)C(=O)N[C@@H](CC(C)C)C(=O)N[C@@H](CCC(N)=O)C(=O)N[C@@H](CC(=O)O)C(=O)N[C@H](C(=O)N[C@@H](Cc1cnc[nH]1)C(=O)N[C@@H](CC(N)=O)C(=O)N[C@@H](Cc1ccccc1)C(=O)O)C(C)C)C(C)C [Teriparatide],Difference,[1]; [17],−0.19
same,Cholesterol-free,[1]; [18],1.061
same,Complete,[1]; [7],0.8757
same,Cholesterol-free media + simvastatin (0.04 μM),[2]; [23],1.048
same,Complete Media,[2]; [24],1.02
same,Difference,[2]; [25],−0.03
Cc1cc(-n2c(=O)[nH]c(=O)n(C)c2=O)ccc1Oc1ccc(SC(F)(F)F)cc1 [Toltrazuril],Difference,[1]; [9],−0.07
same,Cholesterol-free,[1]; [13],0.9718
same,Complete,[1]; [14],0.9012
same,Cholesterol-free media + simvastatin (0.04 μM),[2]; [6],0.9815
same,Complete Media,[2]; [7],0.8466
same,Difference,[2]; [8],−0.13
O=C(Cn1cnnn1)N[C@@H]1C(=O)N2C(C(=O)O)=C(CSc3nncs3)CS[C@H]12 [Ceftezole (sodium)],Difference,[1]; [26],−0.11
same,Cholesterol-free,[1]; [18],1.089
same,Complete,[1]; [7],0.9806
same,Cholesterol-free media + simvastatin (0.04 μM),[2]; [20],1.052
same,Complete Media,[2]; [21],1.1
same,Difference,[2]; [22],0.05
Cc1ccc(=O)n(-c2ccccc2)c1 [Pirfenidone],Cholesterol-free,[1]; [10],1.328
same,Complete,"[1]; NCI-H292 cells, complete media",0.9771
same,Difference,[1]; [28],−0.35
same,Cholesterol-free media + simvastatin (0.04 μM),[2]; [11],1.397
same,Complete Media,[2]; [12],1.068
same,Difference,[2]; [8],−0.33
O=C(O)C[C@@H]1CC[C@H](NC(=O)Cc2cccs2)B(O)O1 [Vaborbactam],Difference,[1]; [9],0.06
same,Cholesterol-free,[1]; [13],0.9017
same,Complete,[1]; [14],0.9648
same,Cholesterol-free media + simvastatin (0.04 μM),[2]; [23],0.8544
same,Complete Media,[2]; [24],0.8532
same,Difference,[2]; [27],0.00
O=C(CCCN1CC=C(n2c(=O)[nH]c3ccccc32)CC1)c1ccc(F)cc1 [Droperidol],Difference,[1]; [9],−0.22
same,Cholesterol-free,[1]; [10],1.218
same,Complete,"[1]; NCI-H292 cells, complete media",1.002
same,Cholesterol-free media + simvastatin (0.04 μM),[2]; [11],1.065
same,Complete Media,[2]; [12],0.7994
same,Difference,[2]; [8],−0.27
O=C(O)c1cn(C2CC2)c2cc(N3CCNCC3)c(F)cc2c1=O [Ciprofloxacin],Cholesterol-free,[1]; [10],1.503
same,Complete,"[1]; NCI-H292 cells, complete media",1.066
same,Difference,[1]; [28],−0.44
same,Cholesterol-free media + simvastatin (0.04 μM),[2]; [20],0.9642
same,Complete Media,[2]; [21],1.043
same,Difference,[2]; [22],0.08
CC(C)OC(=O)CCC/C=C\C[C@@H]1[C@@H](/C=C/C(F)(F)COc2ccccc2)[C@H](O)C[C@@H]1O [Tafluprost],Difference,[1]; [26],−0.18
same,Cholesterol-free,[1]; [18],0.9541
same,Complete,[1]; [7],0.7736
same,Cholesterol-free media + simvastatin (0.04 μM),[2]; [15],1.261
same,Complete Media,[2]; [16],1.095
same,Difference,[2]; [8],−0.17
CN(C)CC/C=C1/c2ccccc2Sc2ccc(Cl)cc21 [Chlorprothixene],Cholesterol-free,[1]; [10],1.606
same,Complete,"[1]; NCI-H292 cells, complete media",1.176
same,Difference,[1]; [28],−0.43
same,Cholesterol-free media + simvastatin (0.04 μM),[2]; [6],2.022
same,Difference,[2]; [27],−0.96
CCCCc1nc(Cl)c(CO)n1Cc1ccc(-c2ccccc2-c2nn[nH]n2)cc1 [Losartan],Difference,[1]; [9],−0.28
same,Cholesterol-free,[1]; [10],1.549
same,Complete,"[1]; NCI-H292 cells, complete media",1.271
same,Cholesterol-free media + simvastatin (0.04 μM),[2]; [11],1.37
same,Complete Media,[2]; [12],0.8741
same,Difference,[2]; [8],−0.50
CCCCCCCC(=O)OCC(COC(=O)CCCCCCC)OC(=O)CCCCCCC [Tricaprilin],Difference,[1]; [9],0.03
same,Cholesterol-free,[1]; [13],0.9476
same,Complete,[1]; [14],0.9746
same,Cholesterol-free media + simvastatin (0.04 μM),[2]; [6],1.072
same,Complete Media,[2]; [7],0.9486
same,Difference,[2]; [8],−0.12
CC(=O)N[C@@H](Cc1ccc(O)cc1)C(=O)O [N-Acetyl-L-tyrosine],Difference,[1]; [26],−0.16
same,Cholesterol-free,[1]; [18],1.221
same,Complete,[1]; [7],1.059
same,Cholesterol-free media + simvastatin (0.04 μM),[2]; [6],1.348
same,Complete Media,[2]; [7],1.218
same,Difference,[2]; [8],−0.13
COc1ccc2c(c1)c(CC(=O)O)c(C)n2C(=O)c1ccc(Cl)cc1 [Indomethacin],Difference,[1]; [3],−0.82
same,Cholesterol-free,[1]; [4],1.574
same,Complete,[1]; [5],0.7546
same,Cholesterol-free media + simvastatin (0.04 μM),[2]; [6],1.269
same,Complete Media,[2]; [7],1.474
same,Difference,[2]; [22],0.20
Oseltamivir (phosphate),Difference,[1]; [17],−0.16
same,Cholesterol-free,[1]; [18],1.28
same,Complete,[1]; [7],1.117
same,Cholesterol-free media + simvastatin (0.04 μM),"[2]; NCI-H292 cells, cholesterol-free media with simvastatin 0.04 μM, […]",0.8277
same,Complete Media,"[2]; NCI-H292 cells, complete media, […]",0.8627
same,Difference,[2]; [19],0.04
N[C@@H]1c2cccnc2[C@H](OC(=O)N2CCC(n3c(=O)[nH]c4ncccc43)CC2)CC[C@H]1c1cccc(F)c1F [Rimegepant],Cholesterol-free,[1]; [10],1.457
same,Complete,"[1]; NCI-H292 cells, complete media",0.9844
same,Difference,[1]; [28],−0.47
same,Cholesterol-free media + simvastatin (0.04 μM),[2]; [15],1.311
same,Complete Media,[2]; [16],1.114
same,Difference,[2]; [8],−0.20
Orphenadrine (citrate),Difference,[1]; [26],−0.10
same,Cholesterol-free,[1]; [18],0.8697
same,Complete,[1]; [7],0.768
same,Complete Media,[2]; [7],1.525
same,Difference,[2]; [22],0.38
CC(=O)N1CCN(c2ccc(OCC3COC(Cn4ccnc4)(c4ccc(Cl)cc4Cl)O3)cc2)CC1 (stereo not shown) [Ketoconazole],Cholesterol-free,[1]; [10],1.003
same,Complete,"[1]; NCI-H292 cells, complete media",0.6148
same,Difference,[1]; [28],−0.39
same,Cholesterol-free media + simvastatin (0.04 μM),[2]; [6],0.2012
same,Complete Media,[2]; [7],0.801
same,Difference,[2]; [22],0.60
